As a reminder, the CC50 is the concentration at which the toxic effect on the cells reaches its halfway point. Higher therefore signals lower toxicity to the cells. One may read the EC50 as the concentration giving half of the maximal effect. A high value points to a need for much substance.

This passage reports CC50, EC50 and half-life results from US11634425B2, “Pharmaceutical compounds” (priority 2019, dated 2023).

Where two headings read alike, the source gives them in different places.

A short description of one data set: Cell cytotoxicity (CC50). The class given is cell-based. The conditions noted are these: human; mean of at least two experiments. Summed up: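 Values are means of ≥2 independent runs, rounded to whole units, from 4-parameter variable-slope curve fits. Toxicity measured in Hep-G2 cells run alongside RSV plaque-reduction assays.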
Another data set relates to RSV A2. Put plainly: RSV plaque reduction assay. In kind it is cell-based, respiratory syncytial virus (RSV). The conditions noted are these: human respiratory syncytial virus, HepG2, Hep-G2 cells, mean of at least two experiments. Summed up:
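EC50 is the 50% reduction in immunostained plaque count versus virus-control wells, interpolated from variable-slope 4-parameter fits and averaged over at least two runs. Hep-G2 cells were infected with 100 PFU/well RSV A2 premixed with compound, with the inoculum removed after 2 h. Incubation continued at 37 °C for 2 days under a CMC overlay with compound.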

A further data set can be described thus: in vitro. In kind it is in vitro ADME. The conditions noted are these: microsomes, pH 7.4, 1 μM compound, 0.5 mg/mL protein, read-out: Liver Microsomal Stability t1/2. In short, it runs like this:
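Pooled liver microsomes (0.5 mg/mL protein) in 0.1 M phosphate pH 7.4 with 1 μM compound and 1 mM NADPH at 37° C., sampled at 0–45 min; minus-NADPH control at 45 min. Acetonitrile quench, LC-MS/MS; t1/2 and CLint from ln peak-area ratio vs time slope.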

In turn, `O=C(N[C@H]1N=C(c2ccccc2)c2cccc(F)c2NC1=O)c1c(-c2ccc(F)cc2F)nc2cccnn12` [Example 89, 2-(2,4-Difluorophenyl)-N-[(3S)-9-fluoro-2-oxo-5-phenyl-1,3-dihydro-1,4-benzodiazepin-3-yl]imidazo[1,2-b]pyridazine-3-carboxamide] yielded a CC50 in the data set “Cell cytotoxicity (CC50)” of more than 25000 nM. In the data set with RSV A2, this compound showed an EC50 of 19 nM. Also, the half-life at 1 μM is 18 h in the data set “in vitro” (dog), 12.3 h in “in vitro” (human) and 3.1 h in the data set “in vitro” (rat).

Regarding `Cc1ccc2nc(-c3ccc(F)cc3F)c(C(=O)N[C@H]3N=C(c4ccccc4)c4cccc(F)c4NC3=O)n2n1` [Example 91, 2-(2,4-Difluorophenyl)-N-[(3S)-9-fluoro-2-oxo-5-phenyl-1,3-dihydro-1,4-benzodiazepin-3-yl]-6-methylimidazo[1,2-b]pyridazine-3-carboxamide], the CC50 in the data set “Cell cytotoxicity (CC50)” is more than 25000 nM. Moreover, in the data set on RSV A2, the response was half-maximal at 17 nM (EC50). Also, the figures for the half-life at 1 μM in “in vitro” (dog), in “in vitro” (human) and in the data set “in vitro” (rat) were 4.47 h, 1.68 h and 0.61 h, respectively.

Consider `CN1CCN(c2ccc3nc(-c4ccccc4F)c(C(=O)N[C@H]4N=C(c5ccccc5)c5cccc(F)c5NC4=O)n3n2)CC1` [Example 95, N-[(3S)-9-fluoro-2-oxo-5-phenyl-1,3-dihydro-1,4-benzodiazepin-3-yl]-2-(2-fluorophenyl)-6-(4-methylpiperazin-1-yl)imidazo[1,2-b]pyridazine-3-carboxamide], for which the half-maximal cytotoxic concentration (CC50) in “Cell cytotoxicity (CC50)” was more than 21100 nM. In addition, in the data set with RSV A2, the EC50 is 93 nM. The values for the half-life at 1 μM in “in vitro” (dog), in “in vitro” (human) and in “in vitro” (rat) were 1.11 h, 0.948 h and 0.595 h, respectively.

With `Cc1ccc2nc(-c3cccnc3)c(C(=O)N[C@H]3N=C(c4ccccc4)c4cccc(F)c4NC3=O)n2n1` [Example 96, N-[(3S)-9-fluoro-2-oxo-5-phenyl-1,3-dihydro-1,4-benzodiazepin-3-yl]-6-methyl-2-pyridin-3-ylimidazo[1,2-b]pyridazine-3-carboxamide], the CC50 in “Cell cytotoxicity (CC50)” is more than 25000 nM. Moreover, the response with RSV A2 was half-maximal at 91 nM (EC50). Further, the half-life at 1 μM in the data set “in vitro” (dog) was determined as 3.78 h; in the data set “in vitro” (human), 42.8 h; in the data set “in vitro” (rat) it was 0.468 h.

In “Cell cytotoxicity (CC50)”, `Cc1ccc2nc(-c3ccncc3F)c(C(=O)N[C@H]3N=C(c4ccccc4)c4cccc(F)c4NC3=O)n2n1` [Example 100, N-[(3S)-9-fluoro-2-oxo-5-phenyl-1,3-dihydro-1,4-benzodiazepin-3-yl]-2-(3-fluoropyridin-4-yl)-6-methylimidazo[1,2-b]pyridazine-3-carboxamide] gave a CC50 of more than 25000 nM. Besides, in the data set with RSV A2, the EC50 came to 47 nM. Moreover, the half-life at 1 μM in “in vitro” (dog) was found to be 1.37 h; in the data set “in vitro” (human), 15.1 h; in the data set “in vitro” (rat), 0.457 h.

In the data set “Cell cytotoxicity (CC50)”, `CCNc1ccc2nc(-c3ccccc3F)c(C(=O)N[C@H]3N=C(c4ccccc4)c4cccc(F)c4NC3=O)n2n1` [Example 106, 6-(Ethylamino)-N-[(3S)-9-fluoro-2-oxo-5-phenyl-1,3-dihydro-1,4-benzodiazepin-3-yl]-2-(2-fluorophenyl)imidazo[1,2-b]pyridazine-3-carboxamide] came in with a CC50 of more than 25000 nM. In addition, the EC50 in the data set on RSV A2 was determined as 66 nM. For the same compound, the half-life at 1 μM in the data set “in vitro” (dog) is 4.8 h; in the data set “in vitro” (human) it was 0.792 h; in “in vitro” (rat), 1.46 h.

In turn, `O=C(N[C@H]1N=C(c2ccccc2)c2cccc(F)c2NC1=O)c1c(-c2ccccc2)nc2cccnn12` [Example 107, N-[(3S)-9-fluoro-2-oxo-5-phenyl-1,3-dihydro-1,4-benzodiazepin-3-yl]-2-phenylimidazo[1,2-b]pyridazine-3-carboxamide] returned a cytotoxic concentration (CC50) in “Cell cytotoxicity (CC50)” of more than 25000 nM. Also, the EC50 in the data set with RSV A2 was determined as 37 nM. The half-life at 1 μM in “in vitro” (dog) was 3.12 h; in the data set “in vitro” (human), 4.97 h; in “in vitro” (rat) it was 1.46 h.

`CN1CC(Oc2ccc3nc(-c4ccccc4F)c(C(=O)N[C@H]4N=C(c5ccccc5)c5cccc(F)c5NC4=O)n3n2)C1` [Example 108, N-[(3S)-9-Fluoro-2-oxo-5-phenyl-1,3-dihydro-1,4-benzodiazepin-3-yl]-2-(2-fluorophenyl)-6-(1-methylazetidin-3-yl)oxyimidazo[1,2-b]pyridazine-3-carboxamide] showed a CC50 in “Cell cytotoxicity (CC50)” of 21900 nM. Moreover, in the data set on RSV A2, the EC50 was 84 nM. Further, the results for the half-life at 1 μM in “in vitro” (dog), in the data set “in vitro” (human) and in the data set “in vitro” (rat) were 2.88 h, 1.3 h and 1.14 h, respectively.

On to `CN1CC(Oc2ccc3nc(-c4ccccc4)c(C(=O)N[C@H]4N=C(c5ccccc5)c5cccc(F)c5NC4=O)n3n2)C1` [Example 109, N-[(3S)-9-Fluoro-2-oxo-5-phenyl-1,3-dihydro-1,4-benzodiazepin-3-yl]-6-(1-methylazetidin-3-yl)oxy-2-phenylimidazo[1,2-b]pyridazine-3-carboxamide], for which the CC50 in “Cell cytotoxicity (CC50)” was more than 16800 nM. In the data set on RSV A2, this compound registered an EC50 of 96 nM. Besides, the half-life at 1 μM in the data set “in vitro” (dog) stood at 4.33 h; in the data set “in vitro” (human) it was 1.3 h; in “in vitro” (rat), 1.15 h.

`COc1ccc2nc(-c3ccccc3)c(C(=O)N[C@H]3N=C(c4ccccc4)c4cccc(F)c4NC3=O)n2n1` [Example 113, N-[(3S)-9-fluoro-2-oxo-5-phenyl-1,3-dihydro-1,4-benzodiazepin-3-yl]-6-methoxy-2-phenylimidazo[1,2-b]pyridazine-3-carboxamide]: the CC50 in “Cell cytotoxicity (CC50)” was more than 25000 nM. Also, the midpoint of the response in the data set on RSV A2, the EC50, lay at 41 nM. For the same compound, the half-life at 1 μM in “in vitro” (dog) amounted to 4.02 h; in the data set “in vitro” (human), 8.63 h; in “in vitro” (rat), 1.46 h.

With `[2H]C([2H])([2H])Oc1ccc2nc(-c3ccccc3)c(C(=O)N[C@H]3N=C(c4ccccc4)c4cccc(F)c4NC3=O)n2n1` [Example 114, N-[(3S)-9-fluoro-2-oxo-5-phenyl-1,3-dihydro-1,4-benzodiazepin-3-yl]-2-phenyl-6-(trideuteriomethoxy)imidazo[1,2-b]pyridazine-3-carboxamide], the CC50 in “Cell cytotoxicity (CC50)” was more than 25000 nM. The compound also yielded an EC50 in the data set on RSV A2 of 39 nM. Besides, the values for the half-life at 1 μM in “in vitro” (dog), in “in vitro” (human) and in “in vitro” (rat) were 5.5 h, 4.1 h and 2.03 h, respectively.

As for `COc1ccc2nc(-c3ccccc3F)c(C(=O)N[C@H]3N=C(c4ccccc4)c4cccc(F)c4NC3=O)n2n1` [Example 115, N-[(3S)-9-fluoro-2-oxo-5-phenyl-1,3-dihydro-1,4-benzodiazepin-3-yl]-2-(2-fluorophenyl)-6-methoxyimidazo[1,2-b]pyridazine-3-carboxamide], the CC50 in “Cell cytotoxicity (CC50)” is more than 25000 nM. Besides, a half-maximal response with RSV A2 (EC50) required 34 nM. Further, the half-life at 1 μM was determined as 7.78 h in the data set “in vitro” (dog), 2.5 h in “in vitro” (human) and 2.42 h in “in vitro” (rat).

Compound `O=C(N[C@H]1N=C(c2ccccc2)c2cccc(F)c2NC1=O)c1c(-c2ccccc2F)nc2ccc(Cl)nn12` [Example 116, 6-Chloro-N-[(3S)-9-fluoro-2-oxo-5-phenyl-1,3-dihydro-1,4-benzodiazepin-3-yl]-2-(2-fluorophenyl)imidazo[1,2-b]pyridazine-3-carboxamide] had a CC50 in “Cell cytotoxicity (CC50)” of more than 25000 nM. This compound gave an EC50 in the data set on RSV A2 of 33 nM. For the same compound, the half-life at 1 μM in “in vitro” (dog) was more than 2.33 h; in “in vitro” (human) it was more than 2.33 h; in the data set “in vitro” (rat) it was 0.957 h.

`COc1ccc2nc(-c3cncc(C)c3)c(C(=O)N[C@H]3N=C(c4ccccc4)c4cccc(F)c4NC3=O)n2n1` [Example 118, N-[(3S)-9-fluoro-2-oxo-5-phenyl-1,3-dihydro-1,4-benzodiazepin-3-yl]-6-methoxy-2-(5-methylpyridin-3-yl)imidazo[1,2-b]pyridazine-3-carboxamide] showed a CC50 in “Cell cytotoxicity (CC50)” of more than 25000 nM. The same compound returned an EC50 with RSV A2 of 59 nM. Moreover, the values for the half-life at 1 μM in the data set “in vitro” (dog), in “in vitro” (human) and in the data set “in vitro” (rat) were 2.38 h, 1.98 h and 0.808 h, respectively.
